From patent US10104891B2 (priority 2014, dated 2018) come the findings set out here.

Holding throughout (format): in vivo
Test [1] concerns Pseudoperonospora cubensis. Nature of the test: Test 2: control effect against cucumber downy mildew. Conditions: control value vs untreated section; for pest or weed control at 4 µg/mL: Pseudoperonospora cubensis, 120 h. Summed up:
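Cucumber (Sagami hanjiro) at 2-leaf stage sprayed with 4 ppm compound from 10% wettable powder in Tween20 (1/5000); inoculated next day with P. cubensis zoospores, 1.0×10^4 units/ml, 16 hr moist chamber at 22° C. Lesion area rate scored 5 days post-inoculation; control value = (1 − treated/untreated onset area rate)×100.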

The test system of another test is Phytophthora infestans. Nature of the test: whole plant or invertebrate. The note with it: for control value (Test 1): tomato late blight, control value vs untreated section; for pest or weed control at 4 µg/mL: Phytophthora infestans, in Solanum lycopersicum, 96 h, read-out: control value (Test 1).
The test system of another test is Plasmopara viticola. Nature of the test: Test 3: control effect against grape downy mildew. The note with it: control value vs untreated section; for pest or weed control at 4 µg/mL: Plasmopara viticola, 120 h. Summed up: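 Neomuscat grape seedlings were sprayed with compound at 4 ppm, diluted from a 10% wettable powder in Tween20 solution. One day later they were inoculated with Plasmopara viticola zoospores at 1.0×10^4 units/ml and held moist at 22° C. for 16 hr. Control value was derived from leaf lesion area at 5 days versus untreated leaves.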

The structures appear in SMILES notation.

Turning to `Cc1cc(C(F)(F)F)nn1CC(=O)N1CCC(c2nc(C3OCc4cccc(C#N)c4CO3)cs2)CC1` (stereo not drawn) [Compound 1-104], the “control value (Test 2)” value in test [1] was determined as 100. For the same compound, the “control value (Test 1)” value in the test with Phytophthora infestans is recorded as 100. For the same compound, the “control value (Test 3)” value in the test with Plasmopara viticola amounted to 100.
Consider `Cc1cc(C)n(CC(=O)N2CCC(c3nc(C4OCc5cccc(OS(C)(=O)=O)c5CO4)cs3)CC2)n1` (stereo not drawn) [Compound 1-105], for which the “control value (Test 2)” value in test [1] is on record as 100. For the same compound, the “control value (Test 1)” value with Phytophthora infestans is on record as 100. Moreover, in the test on Plasmopara viticola, the “control value (Test 3)” value stood at 100.
Consider `Cc1cc(C(F)(F)F)nn1CC(=S)N1CCC(c2nc(C3OCc4cccc(OS(C)(=O)=O)c4CO3)cs2)CC1` (stereo not drawn) [Compound 1-106], for which the “control value (Test 2)” value in test [1] is 100. Further, in the test with Phytophthora infestans, the “control value (Test 1)” value is on record as 100. The “control value (Test 3)” value with Plasmopara viticola amounted to 100.
For the compound `Cc1cc(C(F)(F)F)nn1CC(=S)N1CCC(c2nc(C3OCc4c(F)ccc(OS(C)(=O)=O)c4CO3)cs2)CC1` (stereo not drawn) [Compound 1-107], in test [1], the “control value (Test 2)” value is 100. Also, in the test with Phytophthora infestans, the “control value (Test 1)” value was determined as 100. Moreover, the “control value (Test 3)” value in the test on Plasmopara viticola stood at 100.
For the compound `COc1ccc(OS(C)(=O)=O)c2c1COC(c1csc(C3CCN(C(=O)Cn4nc(C(F)(F)F)cc4Cl)CC3)n1)OC2` (stereo not drawn) [Compound 1-108], the “control value (Test 2)” value in test [1] is 100. The “control value (Test 1)” value in the test on Phytophthora infestans is 100. Further, the “control value (Test 3)” value in the test on Plasmopara viticola was 100.
As for `COc1ccc(OS(C)(=O)=O)c2c1COC(c1csc(C3CCN(C(=O)Cn4nc(Cl)cc4Cl)CC3)n1)OC2` (stereo not drawn) [Compound 1-109, 4-[4-(6-methoxy-9-methylsulfonyloxy-1,5-dihydro-3H-2,4-benzodioxepin-3-yl)-2-thiazolyl]-1-[2-(3,5-dichloro-1H-pyrazole-1-yl)acetyl]piperidine], the pest or weed control at 4 µg/mL (in test [1]; in the test with Phytophthora infestans; with Plasmopara viticola) was 100% each time.
`COc1ccc(Cl)c2c1COC(c1csc(C3CCN(C(=O)Cn4nc(C(F)(F)F)cc4C(F)(F)F)CC3)n1)OC2` (stereo not drawn) [Compound 1-110]: the “control value (Test 2)” value in test [1] amounted to 100. The “control value (Test 1)” value in the test with Phytophthora infestans was determined as 100. The “control value (Test 3)” value with Plasmopara viticola was 100.
On to `O=C(Cn1nc(C(F)(F)F)cc1C(F)(F)F)N1CCC(c2nc(C3OCc4cccc(Br)c4CO3)cs2)CC1` (stereo not drawn) [Compound 1-111], for which the “control value (Test 2)” value in test [1] is 100. For the same compound, the “control value (Test 1)” value in the test with Phytophthora infestans was 100. In the test on Plasmopara viticola, the “control value (Test 3)” value came out at 100.
For the compound `COc1ccc(Cl)c2c1COC(c1csc(C3CCN(C(=O)Cn4nc(C(F)F)cc4C(F)F)CC3)n1)OC2` (stereo not drawn) [Compound 1-112], in test [1], the “control value (Test 2)” value stood at 100. Besides, the “control value (Test 1)” value in the test on Phytophthora infestans came out at 100. Also, the “control value (Test 3)” value in the test with Plasmopara viticola is 100.
Consider `O=C(Cn1nc(C(F)(F)F)cc1C(F)(F)F)N1CCC(c2nc(C3OCc4cccc([N+](=O)[O-])c4CO3)cs2)CC1` (stereo not drawn) [Compound 1-114], for which, in test [1], the “control value (Test 2)” value is recorded as 100. Moreover, the “control value (Test 1)” value with Phytophthora infestans worked out at 100. The “control value (Test 3)” value in the test on Plasmopara viticola stood at 100.
For the compound `COc1ccc(OS(C)(=O)=O)c2c1COC(c1csc(C3CCN(C(=O)Cn4nc(C)cc4C)CC3)n1)OC2` (stereo not drawn) [Compound 1-115, 4-[4-(6-methoxy-9-methylsulfonyloxy-1,5-dihydro-3H-2,4-benzodioxepin-3-yl)-2-thiazolyl]-1-[2-[3,5-dimethyl-1H-pyrazole-1-yl]acetyl]piperidine], the pest or weed control at 4 µg/mL (in test [1]; with Phytophthora infestans; in the test on Plasmopara viticola) was 100% in each case.
For the compound `CS(=O)(=O)Oc1ccc(Cl)c2c1COC(c1csc(C3CCN(C(=O)Cn4nc(C(F)F)cc4C(F)F)CC3)n1)OC2` (stereo not drawn) [Compound 1-116], in test [1], the “control value (Test 2)” value worked out at 100. In the test with Phytophthora infestans, the “control value (Test 1)” value is 100. Moreover, the “control value (Test 3)” value in the test with Plasmopara viticola turned out to be 100.
`COc1ccc(OS(C)(=O)=O)c2c1COC(c1csc(C3CCN(C(=O)Cn4nc(C(F)(F)F)cc4C(F)(F)F)CC3)n1)OC2` (stereo not drawn) [Compound 1-117]: the “control value (Test 2)” value in test [1] was found to be 100. For the same compound, in the test with Phytophthora infestans, the “control value (Test 1)” value turned out to be 100. Further, the “control value (Test 3)” value with Plasmopara viticola worked out at 100.
Take `CS(=O)(=O)Oc1ccc(Cl)c2c1COC(c1csc(C3CCN(C(=O)Cn4nc(C(F)(F)F)cc4C(F)(F)F)CC3)n1)OC2` (stereo not drawn) [Compound 1-118]: the “control value (Test 2)” value in test [1] is on record as 100. In the test with Phytophthora infestans, the “control value (Test 1)” value turned out to be 100. Besides, the “control value (Test 3)” value with Plasmopara viticola is reported as 100.
For `CS(=O)(=O)Oc1cccc2c1COC(c1csc(C3CCN(C(=O)Cn4nc(C(Cl)Cl)cc4C(Cl)Cl)CC3)n1)OC2` (stereo not drawn) [Compound 1-119, 4-[4-(6-methylsulfonyloxy-1,5-dihydro-3H-2,4-benzodioxepin-3-yl)-2-thiazolyl]-1-[2-[3,5-bis(dichloromethyl)-1H-pyrazole-1-yl]acetyl]piperidine], the pest or weed control at 4 µg/mL (in test [1]; in the test with Phytophthora infestans; in the test with Plasmopara viticola) was 100% each time.
Regarding `Cc1cc(C)n(CC(=O)N2CCC(c3nc(C4OCc5c(F)ccc(OS(C)(=O)=O)c5CO4)cs3)CC2)n1` (stereo not drawn) [Compound 1-120], the “control value (Test 2)” value in test [1] came out at 100. The “control value (Test 1)” value with Phytophthora infestans came out at 100. In addition, in the test on Plasmopara viticola, the “control value (Test 3)” value turned out to be 100.
For `Cc1cc(OS(C)(=O)=O)c2c(c1C)COC(c1csc(C3CCN(C(=O)Cn4nc(C(F)F)cc4C(F)F)CC3)n1)OC2` (stereo not drawn) [Compound 1-121], in test [1], the “control value (Test 2)” value is 100. For the same compound, the “control value (Test 1)” value with Phytophthora infestans stood at 100. The “control value (Test 3)” value with Plasmopara viticola was 100.
With `Cc1cc(OS(C)(=O)=O)c2c(c1C)COC(c1csc(C3CCN(C(=O)Cn4nc(C(F)(F)F)cc4C(F)(F)F)CC3)n1)OC2` (stereo not drawn) [Compound 1-122], the “control value (Test 2)” value in test [1] is given as 100. The “control value (Test 1)” value in the test on Phytophthora infestans amounted to 100. Also, the “control value (Test 3)” value with Plasmopara viticola stood at 100.
With `CS(=O)(=O)Oc1ccc(Br)c2c1COC(c1csc(C3CCN(C(=O)Cn4nc(C(F)(F)F)cc4C(F)(F)F)CC3)n1)OC2` (stereo not drawn) [Compound 1-123, 4-[4-(6-bromo-9-methylsulfonyloxy-1,5-dihydro-3H-2,4-benzodioxepin-3-yl)-2-thiazolyl]-1-[2-[3,5-bis(trifluoromethyl)-1H-pyrazole-1-yl]acetyl]piperidine], the pest or weed control at 4 µg/mL (in test [1]; in the test on Phytophthora infestans; in the test with Plasmopara viticola) was 100% in each case.
`CS(=O)(=O)Oc1ccc([N+](=O)[O-])c2c1COC(c1csc(C3CCN(C(=O)Cn4nc(C(F)F)cc4C(F)F)CC3)n1)OC2` (stereo not drawn) [Compound 1-124]: in test [1], the “control value (Test 2)” value stood at 100. Besides, the “control value (Test 1)” value with Phytophthora infestans amounted to 100. For the same compound, the “control value (Test 3)” value with Plasmopara viticola was 100.
`CS(=O)(=O)Oc1ccc(Br)c2c1COC(c1csc(C3CCN(C(=O)Cn4nc(C(F)F)cc4C(F)F)CC3)n1)OC2` (stereo not drawn) [Compound 1-125]: the “control value (Test 2)” value in test [1] stood at 100. Besides, the “control value (Test 1)” value with Phytophthora infestans is 100. Further, in the test with Plasmopara viticola, the “control value (Test 3)” value is listed as 100.
`O=C(Cn1nc(C(F)F)cc1C(F)F)N1CCC(c2nc(C3OCc4cccc([N+](=O)[O-])c4CO3)cs2)CC1` (stereo not drawn) [Compound 1-126]: the “control value (Test 2)” value in test [1] was determined as 100. Besides, the “control value (Test 1)” value in the test with Phytophthora infestans was 100. Moreover, the “control value (Test 3)” value with Plasmopara viticola is listed as 100.
As for `Cc1cc(C(F)(F)F)nn1CC(=O)N1CCN(c2nc(C3OCc4cccc(OS(C)(=O)=O)c4CO3)cs2)CC1` (stereo not drawn) [Compound 1-127], in test [1], the “control value (Test 2)” value turned out to be 100. Also, in the test on Phytophthora infestans, the “control value (Test 1)” value was 100. Also, the “control value (Test 3)” value in the test on Plasmopara viticola is given as 100.
For `CS(=O)(=O)Oc1ccc([N+](=O)[O-])c2c1COC(c1csc(C3CCN(C(=O)Cn4nc(C(F)(F)F)cc4C(F)(F)F)CC3)n1)OC2` (stereo not drawn) [Compound 1-128], in test [1], the “control value (Test 2)” value came out at 100. Also, in the test with Phytophthora infestans, the “control value (Test 1)” value stood at 100. Besides, in the test with Plasmopara viticola, the “control value (Test 3)” value amounted to 100.
Turning to `CS(=O)(=O)Oc1ccc(I)c2c1COC(c1csc(C3CCN(C(=O)Cn4nc(C(F)(F)F)cc4C(F)(F)F)CC3)n1)OC2` (stereo not drawn) [Compound 1-129, 4-[4-(6-iodo-9-methylsulfonyloxy-1,5-dihydro-3H-2,4-benzodioxepin-3-yl)-2-thiazolyl]-1-[2-[3,5-bis(trifluoromethyl)-1H-pyrazole-1-yl]acetyl]piperidine], the pest or weed control at 4 µg/mL (in test [1]; in the test with Phytophthora infestans; with Plasmopara viticola) was 100% in each case.
Regarding `CS(=O)(=O)Oc1ccc(I)c2c1COC(c1csc(C3CCN(C(=O)Cn4nc(C(F)F)cc4C(F)F)CC3)n1)OC2` (stereo not drawn) [Compound 1-130], the “control value (Test 2)” value in test [1] turned out to be 100. Further, the “control value (Test 1)” value in the test on Phytophthora infestans was 100. In the test on Plasmopara viticola, the “control value (Test 3)” value was found to be 100.
On to `CS(=O)(=O)Oc1c(F)ccc2c1COC(c1csc(C3CCN(C(=O)Cn4nc(C(F)(F)F)cc4C(F)(F)F)CC3)n1)OC2` (stereo not drawn) [Compound 1-131, 4-[4-(7-fluoro-6-methylsulfonyloxy-1,5-dihydro-3H-2,4-benzodioxepin-3-yl)-2-thiazolyl]-1-[2-[3,5-bis(trifluoromethyl)-1H-pyrazole-1-yl]acetyl]piperidine], for which the pest or weed control at 4 µg/mL (in test [1]; in the test on Phytophthora infestans; with Plasmopara viticola) was 100% in each case.
In the case of `CS(=O)(=O)Oc1c(F)ccc2c1COC(c1csc(C3CCN(C(=O)Cn4nc(C(F)F)cc4C(F)F)CC3)n1)OC2` (stereo not drawn) [Compound 1-132, 4-[4-(7-fluoro-6-methylsulfonyloxy-1,5-dihydro-3H-2,4-benzodioxepin-3-yl)-2-thiazolyl]-1-[2-[3,5-bis(difluoromethyl)-1H-pyrazole-1-yl]acetyl]piperidine], the pest or weed control at 4 µg/mL (in test [1]; in the test with Phytophthora infestans; with Plasmopara viticola) was 100% throughout.
